The results in this text go back to patent US10945972B2, “Particulate materials” (Nektar Therapeutics, priority 2002, dated 2021).

Counter-ions that a name gives are not always drawn.

Data set [1] in a line: Inverse gas chromatography surface energy (Example 1). Type of data set: physicochemical. To be noted: 303K; for ΔGA (kJ/mol) Diethyl ether: probe diethyl ether. The text has this: For TBS and FHBr powders, IGC was done using a Hewlett Packard Series 6890 instrument which was specifically modified for IGC measurements by Surface Measurement Systems Ltd (Manchester, UK). The IGC method is described in detail by Tong et al. 2001. (Tong H. H. Y., B. Y. Shekunov, P. York, A. H. L. Chow, 2001. Pharm. Res. 18, 852.) Triplicate measurements in separate packed columns were made. […] The γS^D and ΔGA values were obtained at 303K.

Data set [2] is described as follows: Particle size by Helos/Rodos laser diffraction (Example 1). The data set is classed as physicochemical. To be noted: geometric projection-equivalent volume mean diameter. On the procedure:
(§1) PSD measurements were performed using firstly, AEROSIZER® time-of-flight instrument equipped with AERO-[…]® (TSI Inc., Minneapolis. USA) and secondly, laser diffraction sensor Helos with dry-powder air-dispersion system Rodos (Sympatec GmbH. Germany). The volume mean particle diameter, VMD, was obtained for both instruments using software options. In the general case of non-spherical particles, these instruments cannot provide the exact value of VMD, however, the time-of-flight technique gives an aerodynamic-equivalent particle diameter, whereas the laser diffraction method provides the geometric projection-equivalent diameter. These diameters afford the complementary information on PSD and therefore can be used for comparative size analysis.

Data set [3] is described as follows: Bulk powder density (Example 2). The data set is classed as physicochemical.
Data set [4] can be described thus: Triboelectrification in cyclone separator, charge and adhesion. Type of data set: physicochemical. On the procedure:
(§2) Triboelectrification was undertaken against a stainless steel contact surface using either a turbula mixer or a cyclone separator. Triboelectrification in a turbula mixer (Glen Creston, UK) was carried out by agitating a powder sample for 5 minutes at 30 rpm in a 100 ml stainless steel vessel at ambient temperature and relative humidity. A sample was poured in a reproducible manner into a Faraday well connected to an electrometer (Keithley 610, Keithley Instruments, Reading, UK). Charge and mass of sample was then recorded to give specific charge before and after triboelectrification. % w/w adhesion to the inner surface of the mixing vessel was calculated from the original mass of sample and the mass of sample poured into the Faraday well. During triboelectrification in a cyclone separator, a powder was fed from a steel vibratory table into a venturi funnel. Compressed air (velocity 8 m/s. relative humidity below 10%, ambient temperature) was used to convey the powder from the venturi along a horizontal pipe into the cyclone separator. The Faraday well and force compensation load cell was fitted at the base of the cyclone and used to collect charged particles. Final specific charge was recorded for non-adhered powder residing in the Faraday well and, where possible, powder adhering to the cyclone wall was dislodged by a stream of air and its charge and mass recorded. In both cases, the results were obtained from triplicate measurements.

Data set [5] in a line: Inverse gas chromatography of SX powders (Example 2). The following applies: for KA: acidity parameter; for γs^D (mJ/m^2): column at 40° C.; for −ΔGA^SP (kJ/mol) Acetone: probe acetone; for −ΔGA^SP (kJ/mol) Chloroform: probe chloroform; for −ΔGA^SP (kJ/mol) Diethyl ether: probe diethyl ether; for −ΔGA^SP (kJ/mol) Ethyl acetate: probe ethyl acetate; for −ΔGA^SP (kJ/mol) Tetrahydrofuran: probe tetrahydrofuran.

Data set [6] is described as follows: Laser diffraction particle size analysis HELOS/RODOS (Example 2). The data set is classed as physicochemical. The following applies: for mean particle size d4,3: LD technique. On the procedure: The instrument consisted of laser diffraction sensor HELOS and dry-powder air-dispersion system RODOS (Sympatec GmbH. Germany) with WINDOX OS computer interface. The dispersion process was controlled by means of adjusting pressure of the compressed air flow between 0.5 and 5 bar. […] All measurements were performed in triplicate. The particle shape factor, f, was calculated as f=Sv/Sv*. where Sv is the experimental specific surface area and Sv* is the specific surface area determined using the LD instrument assuming the particle sphericity.

A short description of data set [7]: BET nitrogen adsorption specific surface area (Example 2). Type of data set: physicochemical. The protocol:
Data on specific surface areas required for IGC studies were determined by BET nitrogen adsorption using a Surface Area Analyzer Coulter SA 3100 (Coulter Corp., Miami, Fla., USA). Samples were placed in glass sample holders and out-gassed with helium (purity >99.999%) at 40° C. for 16 hours before analysis. Nitrogen (purity >99.999%) was used as adsorbate and BET surface area was recorded as specific surface area of the samples. All measurements were performed in triplicate using the same batch of each material.

Data set [8] is described as follows: Triboelectrification in turbula mixer, charge and adhesion. The following applies: for Q (nCg^−1) After mixing: 5 minutes at 30 rpm. Type of data set: physicochemical. On the procedure: as §2
The nature of data set [9]: Particle size by AeroSizer time-of-flight (Example 1). Type of data set: physicochemical. To be noted: aerodynamic-equivalent volume mean diameter. The protocol:
as §1

A short description of data set [10]: Aerosol analysis at 60 LPM, Turbospin (Example 11). On the procedure:
The aerosol performance of a SEDS™ processed sample of bromocriptine mesylate was assessed in a unit-dose passive inhaler device (Turbospin PH & T (Italy)), at a peak inspiratory flow rate (PFIR) of 28.3 LPM and 60 LPM.

Take `OCc1cc(C(O)CNCCCCCCOCCCCc2ccccc2)ccc1O` (stereo not drawn) [SX SEDS, salmeterol xinafoate]: in data set [1], the “γs^D (mJ/m^2)” value is given as 34.55 mJ/m^2 and the “ΔGA (kJ/mol) Diethyl ether” value is given as 12.65 kJ/mol. Moreover, the “VMD (μm) (laser diffraction)” value in data set [2] worked out at 3.56 μm. Moreover, in data set [3] (listed as S-SX), the bulk powder density result is on record as “about 0.1 g/cm^3”. Moreover, in [4] (listed as S-SX), the “AD (% w/w), fraction of adhered material” value is on record as 5.5 % w/w; the “Q (nCg^−1) After mixing” value was −34.6 nCg^−1; the “Q (nCg^−1) Before mixing” value stood at 4.9 nCg^−1. In [5], the “magnitude of γS^D smaller than for M-SX and G-SX” value came to 15%. Also, in data set [5] (listed as S-SX), the KA is 0.110, the “γs^D (mJ/m^2)” value worked out at 32.476 mJ/m^2, the “−ΔGA^SP (kJ/mol) Acetone” value is listed as 3.797 kJ/mol and the “−ΔGA^SP (kJ/mol) Chloroform” value came to 0.153 kJ/mol. In [5] (listed as S-SX), the “−ΔGA^SP (kJ/mol) Diethyl ether” value stood at 1.488 kJ/mol, the “−ΔGA^SP (kJ/mol) Ethyl acetate” value was 2.705 kJ/mol and the “−ΔGA^SP (kJ/mol) Tetrahydrofuran” value stood at 2.446 kJ/mol. For the same compound, the “−ΔGA^SP (kJ/mol) Dichloromethane” value in data set [5] (probe dichloromethane) is recorded as 2.808 kJ/mol. In data set [6] (listed as S-SX), the “mean particle size d4,3” value is 3.5 μm and the “f (particle shape factor, f=Sv/Sv*)” value is recorded as 3.78. In data set [7] (listed as S-SX), the “SV (specific surface area)” value amounted to 7.040. In addition, in [8] (listed as S-SX), the “Q (nCg^−1) After mixing” value is listed as −0.17 nCg^−1; the “AD (% w/w), fraction of adhered material” value is 1.5 % w/w; the “Q (nCg^−1) Before mixing” value was −0.52 nCg^−1. Further, the “VMD (μm) (Time of flight)” value in data set [9] worked out at 1.6 μm.
Consider `OCc1cc(C(O)CNCCCCCCOCCCCc2ccccc2)ccc1O` (stereo not drawn) [SX Micronised, salmeterol xinafoate, reference compound], for which, in data set [1], the “γs^D (mJ/m^2)” value came to 40.49 mJ/m^2 and the “ΔGA (kJ/mol) Diethyl ether” value is 14.20 kJ/mol. For the same compound, in data set [1] (probe acetone), the “ΔGA (kJ/mol) Acetone” value was 15.24 kJ/mol. Further, the “ΔGA (kJ/mol) Chloroform” value in data set [1] (probe chloroform) is on record as 14.78 kJ/mol. In addition, the “ΔGA (kJ/mol) Ethyl acetate” value in data set [1] (probe ethyl acetate) was determined as 17.46 kJ/mol. Further, the “VMD (μm) (laser diffraction)” value in [2] turned out to be 1.69 μm. For the same compound, the bulk powder density in [3] (listed as M-SX) was found to be 0.5 g/mL. Further, in data set [4] (listed as M-SX), the “AD (% w/w), fraction of adhered material” value is 16.7 % w/w; the “Q (nCg^−1) After mixing” value is −49.7 nCg^−1; the “Q (nCg^−1) Before mixing” value is −48.4 nCg^−1. Also, in [5] (listed as M-SX), the KA came out at 0.172, the “γs^D (mJ/m^2)” value was 38.285 mJ/m^2, the “−ΔGA^SP (kJ/mol) Acetone” value is reported as 4.560 kJ/mol and the “−ΔGA^SP (kJ/mol) Chloroform” value is 0.810 kJ/mol. Further, in [5] (listed as M-SX), the “−ΔGA^SP (kJ/mol) Diethyl ether” value is reported as 2.774 kJ/mol, the “−ΔGA^SP (kJ/mol) Ethyl acetate” value was found to be 3.995 kJ/mol and the “−ΔGA^SP (kJ/mol) Tetrahydrofuran” value was determined as 3.609 kJ/mol. In [6] (listed as M-SX), the “mean particle size d4,3” value turned out to be 1.8 μm and the “f (particle shape factor, f=Sv/Sv*)” value is listed as 2.80. For the same compound, in [7] (listed as M-SX), the “SV (specific surface area)” value worked out at 9.243. For the same compound, in data set [8] (listed as M-SX), the “Q (nCg^−1) After mixing” value is −42.6 nCg^−1; the “AD (% w/w), fraction of adhered material” value amounted to 27 % w/w; the “Q (nCg^−1) Before mixing” value is recorded as −12.1 nCg^−1. Moreover, the “VMD (μm) (Time of flight)” value in [9] is on record as 1.2 μm.
As for `CC(C)C[C@H]1C(=O)N2CCC[C@H]2[C@]2(O)O[C@](NC(=O)[C@@H]3C=C4c5cccc6[nH]c(Br)c(c56)C[C@H]4N(C)C3)(C(C)C)C(=O)N12` [SEDS bromocriptine, bromocriptine mesylate], the “aerodynamic diameter of aerosol particles” value in data set [10] is 4.2 μm.
